Read-outs that look alike come from different tables or passages of the source.
How the values were obtained:
[1] = system: SW620 cells; test: Cell death induction (Annexin-V/FITC and PI flow cytometry), SW620; format: cell-based, human; settings: SW620, 48 h exposure
Experimental: (§1) Flow cytometric analysis using a double fluorescent staining with Annexin-V/FITC and propidium iodide (Roche Diagnostics) was used to evaluate phosphatidylserine exposure and membrane damage. Colon cancer cells (SW480 and SW620) were seeded at 2.5 × 10^5 in each 6-well plate and treated for 48 h. […] At the end of each treatment, cells were scraped and centrifuged. The pellet was resuspended in versene buffer with the fluorescent dyes and incubated for 20 min in darkness. Data were analyzed with FlowJo 7.6.2 (Ashland, OR, USA). Cells with double-positive staining for Annexin-V and PI were considered late apoptotic or dead cells, while the single staining with Annexin-V/FITC (Annexin-V/FITC positive) or propidium iodide (PI positive) was considered for early apoptotic or necrotic cells, respectively. Assays were performed twice.

[2] = system: SW480 cells; test: Antiproliferative activity (SRB, 2-8 days), SW480; format: cell-based; settings: Homo sapiens, read-out: Viability (%) ± SE; for viability at 3 µM: SW480, 3 µM; for viability at 6 µM: SW480, 6 µM; for viability at 12 µM: SW480, 12 µM; for viability at 24 µM: SW480, 24 µM; for viability at 48 µM: SW480, 48 µM
Experimental: The procedure for evaluating the antiproliferative activity was carried out using the same colorimetric test (SRB) described for cell viability, with minor modifications. Briefly, 2500 cells/well were seeded in 96-well tissue culture plates and incubated as in the previously described conditions for 0, 2, 4, 6, and 8 days. […] The culture medium was changed every 48 h. After each incubation time, cells were fixed, stained, and read as previously described for this technique.

[3] = system: SW480 cells; test: Mitochondrial membrane potential (DiOC6/PI flow cytometry), SW480; format: cell-based, human; settings: for Q1: PI-positive cells with membrane damage / Q2: PI-positive cells with membrane damage / Q3: DiOC6 high, live cells with high membrane polarization / Q4: DiOC6 low, cells in latency that lose membrane polarization: SW480, treated at IC50 value, DiOC6/PI
Experimental: (§2) To evaluate changes in mitochondrial membrane permeability, the fluorescent dyes DiOC6 (3,3′-dihexyloxacarbocyanine iodide, Thermo Fisher Scientific, Waltham, MA, USA) and propidium iodide (PI) were used. Cell density was adjusted to seed 2.5 × 10^5 cells/well in 6-well tissue culture plates. […] Subsequently, cells were scraped with the same culture mean and stained with both fluorescent dyes, incubating at room temperature for 30 min in darkness. For each sample, 10,000 events were analyzed through flow cytometry with excitation at 488 nm and detection of the emission with the green (530/15 nm) and the red (610/20 nm) filters. The results informed about the cells with depolarized mitochondrial membranes.

[4] = system: SW480 cells; test: SRB cell viability (cytotoxicity), SW480; format: cell-based, human; settings: for Selectivity Index SI1: CHO-K1/SW480 IC50 ratio; for Selectivity Index SI2: HaCaT/SW480 IC50 ratio; for IC50: Homo sapiens, SW480, SRB, read-out: IC50 ± SEM SW480; for selectivity (SI): SW480 versus the nonmalignant cell lines, 48 h after treatment
Experimental: (§3) Human colon cancer cell lines (SW480 and SW620), together with nonmalignant cells (CHO-K1 and HaCaT) were used to study the biological activity. Cells were purchased from the European Collection of Authenticated Cell Cultures (ECACC, UK). Dulbecco’s Modified Eagle Medium (DMEM) containing heat-inactivated (56 °C) horse serum (10%), non-essential amino acids (1%) and antibiotics (penicillin/streptomycin, 1%) (Gibco Invitrogen, Carlsbad, CA, USA) was used to maintain the cells, reducing the horse serum to 3%, and, adding insulin ([…]), transferrin ([…]) and selenium (5 ng/mL) (ITS-defined medium; Gibco, Invitrogen, Carlsbad, CA, USA) for all the experiments.
(§4) The colorimetric test with Sulforhodamine B (SRB) was used to evaluate cell viability. Cell density was adjusted to seed 20.000 cells/well in 96-well tissue culture plates. Cells were first incubated for 24 h and then treated with the synthesized hybrids, the lead compounds (PIH and resveratrol), and the reference drug (5-FU) (concentrations between 0.01 and 200 µM), using DMSO (below 1%) as vehicle control. The optimum conditions were 37 °C and 5% CO2. After the end of each treatment, cold trichloroacetic acid (MERCK, 50% v/v) was added and preserved for one hour at 4 °C, to fix the cells. Then, cell proteins were stained with 0.4% (w/v) SRB (Sigma-Aldrich, St. Louis, MO, USA), and subsequently washed with acetic acid (1%) to remove unbound SRB. After air-drying, protein-bound SRB was solubilized in 10 mM Tris-base before reading the absorbance at 492 nm in a microplate reader (Mindray MR-96A). All experiments were performed at least three times.

[5] = system: SW620 cells; test: Mitochondrial membrane potential (DiOC6/PI flow cytometry), SW620; format: cell-based, human; settings: SW620, treated at IC50 value
Experimental: as §2

[6] = system: SW620 cells; test: SRB cell viability (cytotoxicity), SW620; format: cell-based, human; settings: for Selectivity Index SI3: CHO-K1/SW620 IC50 ratio; for Selectivity Index SI4: HaCaT/SW620 IC50 ratio; for IC50: Homo sapiens, SW-620, SRB, read-out: IC50 ± SEM SW620
Experimental: as §3, §4

[7] = system: HaCaT cells; test: SRB cell viability (cytotoxicity), HaCaT; format: cell-based; settings: Homo sapiens, HaCaT nonmalignant cells, read-out: IC50 ± SEM HACAT
Experimental: as §3, §4

[8] = system: CHO-K1 cells; test: SRB cell viability (cytotoxicity), CHO-K1; format: cell-based; settings: Cricetulus griseus, CHO-K1 nonmalignant cells, read-out: IC50 ± SEM CHO
Experimental: as §3, §4

[9] = system: SW480 cells; test: Cell death induction (Annexin-V/FITC and PI flow cytometry), SW480; format: cell-based, human; settings: SW480, 48 h exposure
Experimental: as §1

SMILES: O=C(N/N=C/c1c(O)cc(O)cc1/C=C/c1ccc(O)cc1)c1ccncc1 [compound 7, N′-((E)-2,4-dihydroxy-6-((E)-4-hydroxystyryl)benzylidene)isonicotinohydrazide]
- plasma membrane integrity (PI positive staining) [1]: induced plasma membrane disintegration
- viability at 3 µM ([2]; 48 h, 2 days after plating): 100%
- viability at 6 µM ([2]; 48 h, 2 days after plating): 90.5 ± 1.38%
- viability at 12 µM ([2]; 48 h, 2 days after plating): 59.1 ± 0.27%
- viability at 24 µM ([2]; 48 h, 2 days after plating): 27.2 ± 0.5%
- viability at 48 µM ([2]; 48 h, 2 days after plating): 19.6 ± 2.58%
- viability at 3 µM ([2]; 96 h, 4 days after plating): 99.45 ± 0.55%
- viability at 6 µM ([2]; 96 h, 4 days after plating): 78.5 ± 1.56%
- viability at 12 µM ([2]; 96 h, 4 days after plating): 11.4 ± 0.35%
- viability at 24 µM ([2]; 96 h, 4 days after plating): 0%
- viability at 48 µM ([2]; 96 h, 4 days after plating): 0%
- viability at 3 µM ([2]; 144 h, 6 days after plating): 96.87 ± 0.14%
- viability at 6 µM ([2]; 144 h, 6 days after plating): 67.4 ± 1.82%
- viability at 12 µM ([2]; 144 h, 6 days after plating): 5.49 ± 0.05%
- viability at 24 µM ([2]; 144 h, 6 days after plating): 0%
- viability at 48 µM ([2]; 144 h, 6 days after plating): 0%
- viability at 3 µM ([2]; 192 h, 8 days after plating): 74.76 ± 0.02%
- viability at 6 µM ([2]; 192 h, 8 days after plating): 48.5 ± 1.11%
- viability at 12 µM ([2]; 192 h, 8 days after plating): 2.52 ± 0.22%
- viability at 24 µM ([2]; 192 h, 8 days after plating): 0%
- viability at 48 µM ([2]; 192 h, 8 days after plating): 0%
- effect on mitochondrial membrane potential (ΔΨm) ([3]; SW480, regarding the control, increase in DiOC6 low population): causing depolarization in the mitochondrial membrane
- Q1: PI-positive cells with membrane damage [3]: 1.24%
- Q2: PI-positive cells with membrane damage [3]: 0.052%
- Q3: DiOC6 high, live cells with high membrane polarization [3]: 67.3%
- Q4: DiOC6 low, cells in latency that lose membrane polarization [3]: 31.4%
- Selectivity Index SI1 ([4]; 24 H): 0.80
- Selectivity Index SI2 ([4]; 24 H): 0.94
- Selectivity Index SI1 ([4]; 48 H): 2.14
- Selectivity Index SI2 ([4]; 48 H): 2.49
- IC50 ([4]; 24 H): 84.2 ± 10 µM
- IC50 ([4]; 48 H): 19 ± 1.4 µM
- selectivity (SI) [4]: > 1
- Q1: PI-positive cells with membrane damage [5]: 2.19%
- Q2: PI-positive cells with membrane damage [5]: 1.54%
- Q3: DiOC6 high, live cells with high membrane polarization [5]: 89.3%
- Q4: DiOC6 low, cells in latency that lose membrane polarization [5]: 6.99%
- Selectivity Index SI3 ([6]; 24 H): 0.55
- Selectivity Index SI4 ([6]; 24 H): 0.64
- Selectivity Index SI3 ([6]; 48 H): 1.06
- IC50 ([6]; 24 H): 122 ± 10.8 µM
- IC50 ([6]; 48 H): 38.4 ± 3.3 µM
- selectivity (SI) ([6]; SW620 versus the nonmalignant cell lines, 48 h after treatment): > 1
- IC50 ([7]; 24 H): 79 ± 6.73 µM
- IC50 ([7]; 48 H): 47.3 ± 2.5 µM
- IC50 ([8]; 24 H): 67.2 ± 4.32 µM
- IC50 ([8]; 48 H): 40.5 ± 2.4 µM
- plasma membrane integrity (PI positive staining) [9]: induced plasma membrane disintegration

SMILES: COc1ccc(C(=O)N/N=C/c2c(O)cc(O)cc2/C=C/c2ccc(O)cc2)c(OC)c1 [6e, N′-((E)-2,4-dihydroxy-6-((E)-4-hydroxystyryl)benzylidene)-2,4-dimethoxybenzohydrazide]
- viability at 3 µM ([2]; 48 h, 2 days after plating): 95 ± 3.11%
- viability at 6 µM ([2]; 48 h, 2 days after plating): 58.9 ± 0.89%
- viability at 12 µM ([2]; 48 h, 2 days after plating): 38.4 ± 2.67%
- viability at 24 µM ([2]; 48 h, 2 days after plating): 23.9 ± 0.82%
- viability at 48 µM ([2]; 48 h, 2 days after plating): 9.44 ± 1.17%
- viability at 3 µM ([2]; 96 h, 4 days after plating): 68.5 ± 1.31%
- viability at 6 µM ([2]; 96 h, 4 days after plating): 10.5 ± 0.87%
- viability at 12 µM ([2]; 96 h, 4 days after plating): 2.78 ± 0.42%
- viability at 24 µM ([2]; 96 h, 4 days after plating): 0.81 ± 0.38%
- viability at 48 µM ([2]; 96 h, 4 days after plating): 0.3 ± 0.33%
- viability at 3 µM ([2]; 144 h, 6 days after plating): 49 ± 2.08%
- viability at 6 µM ([2]; 144 h, 6 days after plating): 5.03 ± 0.19%
- viability at 12 µM ([2]; 144 h, 6 days after plating): 0.76 ± 0.36%
- viability at 24 µM ([2]; 144 h, 6 days after plating): 0%
- viability at 48 µM ([2]; 144 h, 6 days after plating): 0%
- viability at 3 µM ([2]; 192 h, 8 days after plating): 33.86 ± 0.3%
- viability at 6 µM ([2]; 192 h, 8 days after plating): 2.52 ± 0.1%
- viability at 12 µM ([2]; 192 h, 8 days after plating): 0.48 ± 0.11%
- viability at 24 µM ([2]; 192 h, 8 days after plating): 0%
- viability at 48 µM ([2]; 192 h, 8 days after plating): 0%
- Q1: PI-positive cells with membrane damage [3]: 0.288%
- Q2: PI-positive cells with membrane damage [3]: 0.831%
- Q3: DiOC6 high, live cells with high membrane polarization [3]: 98.6%
- Q4: DiOC6 low, cells in latency that lose membrane polarization [3]: 0.305%
- Selectivity Index SI1 ([4]; 24 H): 0.85
- Selectivity Index SI2 ([4]; 24 H): 1.42
- Selectivity Index SI1 ([4]; 48 H): 2.89
- Selectivity Index SI2 ([4]; 48 H): 2.94
- IC50 ([4]; 24 H): 24.2 ± 3.29 µM
- IC50 ([4]; 48 H): 6.5 ± 1.9 µM
- selectivity (SI) [4]: > 1
- Selectivity Index SI3 ([6]; 24 H): 0.28
- Selectivity Index SI4 ([6]; 24 H): 0.46
- Selectivity Index SI3 ([6]; 48 H): 0.67
- Selectivity Index SI4 ([6]; 48 H): 0.69
- IC50 ([6]; 24 H): 74.8 ± 12.9 µM
- IC50 ([6]; 48 H): 27.8 ± 3.9 µM
- IC50 ([7]; 24 H): 34.4 ± 3.96 µM
- IC50 ([7]; 48 H): 19.1 ± 0.8 µM
- IC50 ([8]; 24 H): 20.6 ± 3.06 µM
- IC50 ([8]; 48 H): 18.8 ± 1.9 µM

From article PMC9694494, “Resveratrol/Hydrazone Hybrids: Synthesis and Chemopreventive Activity against Colorectal Cancer Cells” (Pharmaceutics, 2022)
